{"source": "patent US4103011A", "about": "“Novel penicillin compounds and process for preparation thereof” (priority 1976, dated 1978)", "key": {"Escherichia coli P-5101 [1]": {"tested_on": "Escherichia coli P-5101", "assay": "In vivo efficacy against systemic infection", "design": "species or system male mice (ddY)", "conditions": "P5101, in Mus musculus, 168 h, twice, about 5 minutes and 6 hours after infection, read-out: ED50 (median effective dose)", "in_short": "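Male ddY mice of about 20g were infected intraperitoneally with E. coli P-5101 suspended in tryptosoy broth. Compounds dissolved in deionized water were given twice, about 5 minutes and 6 hours after infection. Effective dose was calculated by the Behrens-Kaerber method.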"}, "[2]": {"tested_on": "Streptococcus faecalis P-2473", "assay": "In vitro antibacterial activity (MIC)", "format": "cell-based", "conditions": "Enterococcus faecalis, P2473; Streptococcus faecalis P-2473; read-out: minimum inhibitory concentration (MIC)", "description": "(§1) In vitro antibacterial activity against 20 strains of bacteria\n(§2) The numerals in the table show minimum inhibitory concentrations (MIC)"}, "Escherichia coli P-5101 [3]": {"tested_on": "Escherichia coli P-5101", "assay": "In vitro antibacterial activity (MIC)", "format": "cell-based", "conditions": "P5101; Escherichia coli P-5101; read-out: minimum inhibitory concentration (MIC)", "description": "as §1, §2"}, "[4]": {"tested_on": "Staphylococcus aureus No. 50774", "assay": "In vitro antibacterial activity (MIC)", "format": "cell-based", "conditions": "Staphylococcus aureus No. 50774; read-out: minimum inhibitory concentration (MIC)", "description": "as §1, §2"}, "Shigella flexneri 2a": {"tested_on": "Shigella flexneri 2a", "assay": "In vitro antibacterial activity (MIC)", "format": "cell-based", "conditions": "read-out: minimum inhibitory concentration (MIC)", "description": "as §1, §2"}, "Proteus mirabilis P-2381": {"tested_on": "Proteus mirabilis P-2381", "assay": "In vitro antibacterial activity (MIC)", "format": "cell-based", "conditions": "P2381; Proteus mirabilis P-2381; read-out: minimum inhibitory concentration (MIC)", "description": "as §1, §2"}, "[5]": {"tested_on": "Serratia mercescens IFO 3736", "assay": "In vitro antibacterial activity (MIC)", "format": "cell-based", "conditions": "IFO3736; Serratia mercescens IFO 3736; read-out: minimum inhibitory concentration (MIC)", "description": "as §1, §2"}, "[6]": {"tested_on": "Salmonella enteritidis No. 1891", "assay": "In vitro antibacterial activity (MIC)", "format": "cell-based", "conditions": "Salmonella enterica; Salmonella enteritidis No. 1891; read-out: minimum inhibitory concentration (MIC)", "description": "as §1, §2"}, "[7]": {"tested_on": "Staphylococcus aureus 209P JC-1", "assay": "In vitro antibacterial activity (MIC)", "format": "cell-based", "conditions": "Staphylococcus aureus 209P JC-1; read-out: minimum inhibitory concentration (MIC)", "description": "as §1, §2"}, "[8]": {"tested_on": "Shigella flexneri 4a P-330", "assay": "In vitro antibacterial activity (MIC)", "format": "cell-based", "conditions": "4AP330, read-out: minimum inhibitory concentration (MIC)", "description": "as §1, §2"}, "Proteus rettgeri P-2503": {"tested_on": "Proteus rettgeri P-2503", "assay": "In vitro antibacterial activity (MIC)", "format": "cell-based", "conditions": "Providencia rettgeri, P2503; Proteus rettgeri P-2503; read-out: minimum inhibitory concentration (MIC)", "description": "as §1, §2"}, "Proteus morganii Kono": {"tested_on": "Proteus morganii Kono", "assay": "In vitro antibacterial activity (MIC)", "format": "cell-based", "conditions": "Morganella morganii; Proteus morganii Kono; read-out: minimum inhibitory concentration (MIC)", "description": "as §1, §2"}, "[9]": {"tested_on": "Pseudomonas aeruginosa Tsuchijima", "assay": "In vitro antibacterial activity (MIC)", "format": "cell-based", "conditions": "Pseudomonas aeruginosa Tsuchijima; read-out: minimum inhibitory concentration (MIC)", "description": "as §1, §2"}, "[10]": {"tested_on": "Pseudomonas aeruginosa No.12", "assay": "In vitro antibacterial activity (MIC)", "format": "cell-based", "conditions": "Pseudomonas aeruginosa, NO.12, read-out: minimum inhibitory concentration (MIC)", "description": "as §1, §2"}, "[11]": {"tested_on": "Escherichia coli NIHJ JC-2", "assay": "In vitro antibacterial activity (MIC)", "format": "cell-based", "conditions": "Escherichia coli, NIHJJC2, read-out: minimum inhibitory concentration (MIC)", "description": "as §1, §2"}, "[12]": {"tested_on": "Corynebacterium pyogenes C-21", "assay": "In vitro antibacterial activity (MIC)", "format": "cell-based", "conditions": "Rhodococcus (subgen. Prescottella) equi, C21; Corynebacterium pyogenes C-21; read-out: minimum inhibitory concentration (MIC)", "description": "as §1, §2"}, "[13]": {"tested_on": "Salmonella typhimurium S-9", "assay": "In vitro antibacterial activity (MIC)", "format": "cell-based", "conditions": "Salmonella enterica; Salmonella typhimurium S-9; read-out: minimum inhibitory concentration (MIC)", "description": "as §1, §2"}, "[14]": {"tested_on": "Streptococcus pyogenes 65A", "assay": "In vitro antibacterial activity (MIC)", "format": "cell-based", "conditions": "Streptococcus pyogenes 65A; read-out: minimum inhibitory concentration (MIC)", "description": "as §1, §2"}, "Escherichia coli P-140a": {"tested_on": "Escherichia coli P-140a", "assay": "In vitro antibacterial activity (MIC)", "format": "cell-based", "description": "as §1, §2"}, "[15]": {"tested_on": "Klebsiella pneumoniae No. 13", "assay": "In vitro antibacterial activity (MIC)", "format": "cell-based", "conditions": "Klebsiella pneumoniae No. 13; read-out: minimum inhibitory concentration (MIC)", "description": "as §1, §2"}, "[16]": {"tested_on": "Enterobacter cloacae P-2540", "assay": "In vitro antibacterial activity (MIC)", "format": "cell-based", "conditions": "P2540; Enterobacter cloacae P-2540; read-out: minimum inhibitory concentration (MIC)", "description": "as §1, §2"}, "in vivo": {"assay": "in vivo", "conditions": "mouse"}, "[17]": {"tested_on": "Staphylococcus aureus No. 50774", "assay": "In vivo efficacy against systemic infection", "design": "species or system male mice (ddY)", "conditions": "NO.50774, in Mus musculus, 336 h, sc, twice, about 5 minutes and 6 hours after infection, read-out: ED50 (median effective dose)", "in_short": "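Male ddY mice (~20 g) infected intravenously with 50 to 100 LD50 (about 5 × 10^8 cells/mouse) of S. aureus No. 50774 in saline. Compounds in water or aqueous sodium carbonate (pH 8-9) dosed twice, about 5 minutes and 6 hours post-infection; ED50 (mg/kg) by Behrens-Kaerber method.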"}, "[18]": {"tested_on": "Pseudomonas aeruginosa No. 12", "assay": "In vivo efficacy against systemic infection", "design": "species or system male mice (ddY)", "conditions": "for ED50: NO.12, in Mus musculus", "in_short": "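Male ddY mice (about 20 g) infected intraperitoneally with a Pseudomonas aeruginosa No. 12 suspension. Compounds in deionized water were given twice, about 5 minutes and 6 hours after infection. Effective dose calculated by the Behrens-Kaerber method.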"}, "[19]": {"tested_on": "bacteria (systemic infection)", "assay": "In vivo efficacy against systemic infection, overall conclusions", "design": "species or system male mice (ddY)", "conditions": "Table II", "method": "The contents in the vials (No. A and No. C) prepared in Example 17 were each dissolved in deionized water, and injections having various concentrations were prepared.\nCompounds A, B, F, G, H and M were dissolved in deionized water. Compounds C, D, E and J were dissolved in an aqueous solution of sodium carbonate (pH 8-9) to prepare injections of various concentrations.\nEach of the injections was administered to mice under the conditions described below, and the median effective doses (ED50) obtained are shown in Table II."}}, "note": "Counter-ions that a name gives are not always drawn. Like-named read-outs stand apart in the source and are kept apart here.", "data": [{"smiles": "CC(=O)N1CCN(c2ncc3c(=O)c(C(=O)N[C@@H](C(=O)N[C@@H]4C(=O)N5[C@@H]4SC(C)(C)[C@@H]5C(=O)O)c4ccc(O)cc4)c[nH]c3n2)CC1", "note": "[Compound 2, D-α-[5,8-Dihydro-2-(4-acetyl-1-piperazinyl)-5-oxopyrido[2,3-d]pyrimidine-6-carboxamido]-p-hydroxybenzylpenicillin sodium salt]", "values": [{"measurement": "ED50", "setting": "Escherichia coli P-5101 [1]; iv", "result": 3.9, "unit": "mg/kg"}, {"measurement": "ED50", "setting": "Escherichia coli P-5101 [1]; sc", "result": 4.6, "unit": "mg/kg"}, {"measurement": "chemotherapeutic index relative to compounds B, D, E, F, G and J (times as high)", "setting": "mice; Pseudomonas aeruginosa", "result": "3 to 100", "unit": "times"}, {"measurement": "LD50 relative to compounds A to G (times as high)", "setting": "mice; mice", "result": "2 to 10", "unit": "times"}, {"measurement": "MIC", "setting": "[2]", "result": 6.25, "unit": "µg/mL"}, {"measurement": "MIC", "setting": "Escherichia coli P-5101 [3]", "result": 0.78, "unit": "µg/mL"}, {"measurement": "MIC", "setting": "[4]", "result": 1.56, "unit": "µg/mL"}, {"measurement": "MIC", "setting": "Shigella flexneri 2a", "result": 3.13, "unit": "µg/mL"}, {"measurement": "MIC", "setting": "Proteus mirabilis P-2381", "result": 6.25, "unit": "µg/mL"}, {"measurement": "MIC", "setting": "[5]", "result": 6.25, "unit": "µg/mL"}, {"measurement": "MIC", "setting": "[6]", "result": 0.78, "unit": "µg/mL"}, {"measurement": "MIC", "setting": "[7]", "result": 1.56, "unit": "µg/mL"}, {"measurement": "MIC", "setting": "[8]", "result": 3.13, "unit": "µg/mL"}, {"measurement": "MIC", "setting": "Proteus rettgeri P-2503", "result": 25, "unit": "µg/mL"}, {"measurement": "MIC", "setting": "Proteus morganii Kono", "result": 6.25, "unit": "µg/mL"}, {"measurement": "MIC", "setting": "[9]", "result": 0.78, "unit": "µg/mL"}, {"measurement": "MIC", "setting": "[10]", "result": 3.13, "unit": "µg/mL"}, {"measurement": "MIC", "setting": "[11]", "result": 3.13, "unit": "µg/mL"}, {"measurement": "MIC", "setting": "[12]", "result": 0.78, "unit": "µg/mL"}, {"measurement": "MIC", "setting": "[13]", "result": 0.78, "unit": "µg/mL"}, {"measurement": "MIC", "setting": "[14]", "result": 0.006, "unit": "µg/mL"}, {"measurement": "minimum inhibitory concentration (MIC)", "setting": "Escherichia coli P-140a", "result": 12.5, "unit": "µg/mL"}, {"measurement": "MIC", "setting": "[15]", "result": 12.5, "unit": "µg/mL"}, {"measurement": "MIC", "setting": "[16]", "result": 6.25, "unit": "µg/mL"}, {"measurement": "LD50 at 168 h", "setting": "in vivo; iv", "result": 4520, "unit": "mg/kg"}, {"measurement": "selectivity ratio", "setting": "in vivo; iv", "result": 753}, {"measurement": "LD50 at 168 h", "setting": "in vivo; sc", "result": "> 6000", "unit": "mg/kg"}, {"measurement": "selectivity ratio", "setting": "in vivo; sc", "result": "> 1200"}, {"measurement": "ED50", "setting": "[17]", "result": 3.3, "unit": "mg/kg"}, {"measurement": "ED50", "setting": "[18]; iv, twice, about 5 minutes and 6 hours after infection, read-out: ED50 (median effective dose)", "result": 6, "unit": "mg/kg"}, {"measurement": "ED50", "setting": "[18]; parenteral administration, compounds 1 and 2 together, read-out: ED50", "result": "2 to 6", "unit": "mg/kg"}, {"measurement": "ED50", "setting": "[18]; sc, twice, about 5 minutes and 6 hours after infection, read-out: ED50 (median effective dose)", "result": 5, "unit": "mg/kg"}, {"measurement": "antibacterial activity compared with compounds J and H (in words)", "setting": "[18]; parenteral administration", "result": "far superior antibacterial activity"}, {"measurement": "antibacterial activity relative to compounds B and C (times as high)", "setting": "[18]; parenteral administration", "result": "3 to 25", "unit": "times"}, {"measurement": "antibacterial activity relative to compounds D and E (times as high)", "setting": "[18]; parenteral administration", "result": "6 to 20", "unit": "times"}, {"measurement": "antibacterial activity in vivo (in words)", "setting": "[19]", "result": "excellent antibacterial activity in vivo"}]}]}
